Consider three compounds from article PMC12051030, “Identification of inhibitors of the Salmonella FraB deglycase, a drug target” (FEBS Open Bio, 2025).

One series deals with FraB (Salmonella enterica subsp. enterica serovar Typhimurium, UniProt Q8ZLD0). The series is described as follows: Native MS of FraB–inhibitor complexes. The series is classed as binding. Particulars: for binding to FraB by native MS (species observed): IST 50 V, E2I/E2I2 = FraB dimer bound to one or two inhibitor copies; for type of FraB–inhibitor interaction (covalent vs noncovalent): decrease in E2I and E2I2 with increasing IST voltage. Here is the method:
For MS analysis, FraB was buffer exchanged into 200 mM ammonium acetate (AmAc) (Sigma‐Aldrich) or 66.7 mM ethylenediaminediacetic acid (EDDA) (Sigma‐Aldrich) using micro Bio‐spin P6 spin columns (Bio‐Rad); AmAc and EDDA concentrations were chosen to ensure the same ionic strength. The pH was adjusted to 7.5 by adding ammonium hydroxide solution (Sigma‐Aldrich). 6‐P‐F‐Asp was diluted with water, while three different inhibitors [3470:A09, 3469:F02, and 3469:N17, all purchased from either ChemDiv (San Diego, CA, USA) or Ambinter (Orléans, France)] were diluted in DMSO. The final concentration of DMSO used in the native MS experiments was 4.8% (v/v) or 1% (v/v) for the compounds obtained from ChemDiv or Ambinter, respectively.
For the characterization of FraB–inhibitor complexes, the protein was diluted into 200 mM AmAc and then mixed with inhibitors to final concentrations of 3 μM FraB and 120 μM inhibitor. After adding the inhibitors, the FraB–inhibitor complex was incubated for 20 min at 20 °C before injecting into the mass spectrometry (MS). For the characterization of FraB–inhibitor–substrate complexes, FraB was diluted into 66.7 mM EDDA, mixed with inhibitors, incubated at 20 °C for 20 min, and subsequently mixed with 6‐P‐F‐Asp. The final concentrations were as follows: 3 μM FraB (monomer concentration), 120 μM inhibitor, and 600 μM 6‐P‐F‐Asp.
Native MS experiments were performed on Thermo Q Exactive ultra high mass range (UHMR) Orbitrap. Samples were introduced into the MS instrument by nano‐electrospray ionization, which using glass capillary tips pulled in‐house using a P‐97 micropipette puller (Sutter Instruments, Novato, CA, USA). Each sample (3–5 μL) was loaded into the tips, and the electrospray voltage was set between 0.6 and 1.0 kV. The mass spectrometer was operated in positive mode using the following tuning settings: Capillary temperature: 200 °C detector optimization: low m/z; ion transfer target: high m/z; in‐source trapping (IST): 50 V, except when applying higher IST to disrupt the FraB–inhibitor interactions; HCD trap gas flow: 5; Resolution: 12 500. Mass spectra were collected after the spray stabilized (typically < 5 min) and then examined using XCalibur 4.1 (Thermo Scientific), and deconvolved using UniDec software.

A further series relates to dCTP pyrophosphatase 1. Also noted: method as in PMID 28145708. The settings on record: bioassay records in PubChem; cited from earlier work.
The test system of another series is deubiquitinase USP17. Also noted: method as in PMID 28145708. Particulars: bioassay records in PubChem; cited from earlier work.
For the next series, the system named is deubiquitinase USP28. More on the design: method as in PMID 28145708. The settings on record: bioassay records in PubChem; cited from earlier work.
Another series relates to deubiquitinase USP30. More on the design: method as in PMID 28145708. The settings on record: bioassay records in PubChem; cited from earlier work.

FraB, sequence (Q8ZLD0 entry or part of it): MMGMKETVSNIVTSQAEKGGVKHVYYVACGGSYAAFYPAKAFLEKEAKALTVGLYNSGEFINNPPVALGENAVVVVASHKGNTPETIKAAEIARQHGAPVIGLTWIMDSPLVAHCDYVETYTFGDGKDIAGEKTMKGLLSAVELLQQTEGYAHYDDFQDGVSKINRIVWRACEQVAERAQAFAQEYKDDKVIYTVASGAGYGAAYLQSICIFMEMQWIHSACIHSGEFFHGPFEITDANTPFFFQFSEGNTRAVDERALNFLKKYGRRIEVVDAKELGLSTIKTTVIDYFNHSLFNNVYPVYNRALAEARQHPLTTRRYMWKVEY

As for `c1ccc(-c2nnc3sc(C4COc5ccccc5O4)nn23)nc1` (centres unmarked) [3469:F02, 6‐(2,3‐dihydro‐1,4‐benzodioxin‐3‐yl)‐3‐pyridin‐2‐yl‐[1,2,4]triazolo[3,4‐b][1,3,4]thiadiazole], the “binding to FraB by native MS (species observed)” value (from here on “binding to FraB by native MS”) on FraB (3 μM FraB, 120 μM inhibitor) is “distinct peaks corresponding to E2I and E2I2”. In addition, the “type of FraB–inhibitor interaction (covalent vs noncovalent)” value on FraB is recorded as “noncovalent”.
For the compound `Fc1ccc(-c2nn3c(-c4ccccn4)nnc3s2)cc1` [3469:N17, 6‐(4‐fluorophenyl)‐3‐pyridin‐2‐yl‐[1,2,4]triazolo[3,4‐b][1,3,4]thiadiazole], at FraB (3 μM FraB, 120 μM inhibitor, 600 μM 6‐P‐F‐Asp), the “binding to FraB in the presence of substrate (native MS)” value is reported as “can bind either free enzyme or the enzyme‐substrate complex”. Also, on FraB (3 μM FraB, 120 μM inhibitor), the “binding to FraB by native MS” value was “distinct peaks corresponding to E2I and E2I2”. In addition, on FraB, the “type of FraB–inhibitor interaction (covalent vs noncovalent)” value is given as “noncovalent”. The “inhibition of dCTP pyrophosphatase 1” value in the series on dCTP pyrophosphatase 1 is “reported to inhibit”.
For the compound `CC(C)Cc1cc(-c2nn3c(-c4ccccc4Cl)nnc3s2)n[nH]1` [3470:A09, 3‐(2‐chlorophenyl)‐6‐[5‐(2‐methylpropyl)‐1H‐pyrazol‐3‐yl]‐[1,2,4]triazolo[3,4‐b][1,3,4]thiadiazole], the “binding to FraB by native MS” value on FraB (3 μM FraB, 120 μM inhibitor) was “distinct peaks corresponding to E2I and E2I2”. In addition, on FraB, the “type of FraB–inhibitor interaction (covalent vs noncovalent)” value is “noncovalent”. For the same compound, the “inhibition of USP17” value with deubiquitinase USP17 was “found to inhibit”. Also, the “inhibition of USP28” value in the series on deubiquitinase USP28 is recorded as “found to inhibit”. In the series on deubiquitinase USP30, the “inhibition of USP30” value is “found to inhibit”.
